Experiment [1] concerns azole resistant C. albicans MTCC 227. In words: Checkerboard assay on azole resistant C. albicans MTCC 227. The conditions noted are these: for MIC: Candida albicans, MTCC227, agent alone. The class given is cell-based, Candida albicans.
For another experiment, the system named is C. albicans (ATCC-90028). Briefly: Checkerboard assay on C. albicans (ATCC-90028). Format: cell-based, Candida albicans. The following applies: for MIC: Candida albicans, ATCC90028, agent alone, Table 8. The procedure: (§1) The synergy is measured by determining the fractional inhibitory concentration (FIC) value of the combination. This experimental set up, called checkerboard method, allows measurement of a desired effect (inhibition of fungal growth in this case) at different combinations of various concentrations of the two agents (antifungal agent and fatty acid/ester). […] No agent is added to the penultimate column on the right and the bottom row. The final column on the right is used for growth control (only inoculum in broth) and sterility control (broth alone, no inoculum). […] FIC value for each agent in a particular well of the checkerboard layout was calculated by dividing the agent concentration in that well by the established MIC value of the agent against the test organism (Hsieh et al., Synergy assessed by checkerboard: A critical Analysis, Diagn. Microbiol. Infect Dis. (1993) 16:343-349). FIC values for both agents in a particular well were calculated in this way followed by determination of the FIC index (sum of the FICs of each drug in the concerned well). […] Agents Chemother. (2010) 54(2): 602-609].
(§2) Using the checkerboard layout experimental setup described above (FIG. 1A), various medium-chain fatty acids were tested for their ability to potentiate the activity of a known antifungal agent. Concentrations above and below the MIC of each test agent were tested using serial dilution. The same procedure was expanded to test combinations of various medium-chain fatty acids C-1 to C-14 (such caprylic acid, undecylenic acid and lauric acid) and esters thereof, with antifungal agents from various classes including azoles, allylamines, benzylamines, zinc pyrithione and piroctone olamine against both susceptible and resistant Trichophyton spp. (filamentous fungus) and Candida spp. (yeast).
(§3) Potentiation of the activity of antimycotic agents using ester derivatives of medium chain fatty acids was tested in a standard, well accepted in vitro assay system to check for synergy. This experimental set up, called checkerboard method, allows measurement of a desired effect (inhibition of fungal growth in this case) at different combinations of various concentrations of two agents. A chosen medium chain fatty acid (C-1 to C-14) or its ester derivative was tested for its ability to potentiate the activity of a known antifungal agent (various classes) using the checkerboard layout. Various concentrations above and below the MIC of each test agent were tested using serial dilution in Sabouraud dextrose broth. […] FIC value for a drug in a particular well of the checkerboard layout is calculated by dividing the drug concentration in that well by the established MIC value of the drug against the test organism (Hsieh et al., Synergy assessed by checkerboard: A critical Analysis, Diagn. Microbiol. Infect Dis. (1993) 16:343-349). FIC values for both test agents in a particular well are calculated in this way followed by determination of the FIC index (sum of the FICs of each drug in the concerned well).

Experiment [2] has as its system terbinafine resistant Trichophyton interdigitale (GTB-2S). Briefly: Checkerboard assay on terbinafine resistant Trichophyton interdigitale (GTB-2S). The class given is cell-based. The conditions noted are these: for MIC: Trichophyton interdigitale, agent alone, Table 7. On the procedure: as §1, with “FIC” for “FIC value for each agent in a particular well of the checkerboard layout was calculated by dividing the agent concentration in that well by the established MIC value of the agent against the test organism (Hsieh et al., Synergy assessed by checkerboard: A critical Analysis, Diagn. Microbiol. Infect Dis. (1993) 16:343-349). FIC”, “Chemother.” for “Chemother. (2010) 54(2): 602-609].”
as §2
as §3, with “FIC” for “FIC value for a drug in a particular well of the checkerboard layout is calculated by dividing the drug concentration in that well by the established MIC value of the drug against the test organism (Hsieh et al., Synergy assessed by checkerboard: A critical Analysis, Diagn. Microbiol. Infect Dis. (1993) 16:343-349). FIC”

The test system of another experiment is M. furfur (MTCC 1374). Briefly: Lipid assimilation in vitro assay: fatty acids/esters as nutrients for growth of M. furfur. Format: cell-based, Malassezia furfur. The following applies: Sabouraud dextrose agar, after 6 days. The text has this:
Malassezia species are lipophilic unipolar yeasts recognized as commensals of skin that may be pathogenic under certain conditions (Jindo et al 2004: Indian Journal of Medical Microbiology (22: 179). To compare lipid requirements of the fungus most closely associated with dandruff/seborrheic dermatitis, the best studied Malassezia species is M. furfur. Lipid assimilation in vitro assay was designed to investigate lipid effect on growth of M. furfur (MTCC 1374).
Briefly, Sabouraud Dextrose containing low-melt agar was melted, cooled to 38° C. Fatty acids/esters constituents eg, propylene glycol monocaprylate (C-8), capric acid (C-10), caprylic acid (C-8), linoleic acid (C-18), oleic acid (C-18), palmitic acid (C-16), ethyl oleate (C-18), and oils containing fatty acid/esters eg, coconut oil, mustard oil etc., were added to study the growth of the fungus (Kaw Bing CHUA, et al Malaysian J Pathol (2005) 27(2): 99). After solidification, agar plates were streaked with M. furfur innoculum adjusted to appropriate cfu/ml, aseptically. Positive control with 2% olive oil and negative control without fatty substance were also maintained.

Where [3] appears, read: Table 9, caprylic acid (C8) series.
Where [4] appears, read: agent's MIC in combination luliconazole + caprylic acid.
[5] abbreviates: combination luliconazole + caprylic acid.
The mark [6] stands for this setting: agent's MIC in combination luliconazole + glyceryl monocaprylate.
The mark [7] stands for this setting: combination luliconazole + glyceryl monocaprylate.
The mark [8] stands for this setting: antifungal in combination with caprylic acid.
Where [9] appears, read: antifungal in combination with lauric acid.
Where [10] appears, read: antifungal in combination with propylene glycol monocaprylate.
The mark [11] stands for this setting: antifungal in combination with undecylenic acid.
Where [12] appears, read: in combination with caprylic acid.
The mark [13] stands for this setting: in combination with glyceryl monocaprylate.

Usually MIC stands for the lowest concentration that inhibits growth of the organism.

For `CCCCCCCC(=O)O` [Caprylic acid], the values for the MIC (in experiment [1] (setting [3]); with C. albicans (ATCC-90028); in experiment [2]) were 250 µg/mL, 125 µg/mL and 15.6 µg/mL, respectively. Further, the “Combination MIC” value amounted to 31.25 µg/mL in the experiment with C. albicans (ATCC-90028) (setting [4]) and 7.812 µg/mL in experiment [2] (agent's MIC in combination terbinafine or butenafine + caprylic acid). Moreover, the FIC is on record as 0.25 in the experiment on C. albicans (ATCC-90028) (setting [5]) and 0.5 in experiment [2] (combination terbinafine or butenafine + caprylic acid). Moreover, the “growth of M. furfur on culture media containing the fatty acid/ester or oil” value with M. furfur (MTCC 1374) is “no growth”.
Take `CCCCCCCC(=O)OCC(O)CO` (stereo not drawn) [Glyceryl monocaprylate]: the MIC in experiment [1] (Table 11, glyceryl monocaprylate series) worked out at 1250 µg/mL; in the experiment with C. albicans (ATCC-90028), 500 µg/mL; in experiment [2] it was 15.6 µg/mL. For the same compound, the figures for the “Combination MIC” value (in experiment [1] (agent's MIC in combination antifungal + glyceryl monocaprylate (partner: other agent of same combination no.)); in the experiment with C. albicans (ATCC-90028) (setting [6]); in experiment [2] (agent's MIC in combination terbinafine or butenafine + glyceryl monocaprylate)) were 312.5 µg/mL, 31.25 µg/mL and 7.812 µg/mL, respectively. Also, the FIC in experiment [1] (combination antifungal + glyceryl monocaprylate) was 0.25; in the experiment with C. albicans (ATCC-90028) (setting [7]), 0.0625; in experiment [2] (combination terbinafine or butenafine + glyceryl monocaprylate), 0.5.
`N#C/C(=C1/SC[C@@H](c2ccc(Cl)cc2Cl)S1)n1ccnc1` [Luliconazole]: the MIC in experiment [1] (setting [3]) was determined as 8 µg/mL; in experiment [1] (Table 10, propylene glycol monocaprylate series) it was 8 µg/mL; in experiment [1] (Table 12, undecylenic acid (C11) series) it was 8 µg/mL; in experiment [1] (Table 13, lauric acid (C12) series), 8 µg/mL; in the experiment with C. albicans (ATCC-90028), 7.5 µg/mL. In addition, the “Combination MIC” value in experiment [1] (agent's MIC in combination antifungal + caprylic acid (partner: other agent of same combination no.)) is 0.5 µg/mL; in experiment [1] (agent's MIC in combination antifungal + lauric acid (partner: other agent of same combination no.)), 1 µg/mL; in experiment [1] (agent's MIC in combination antifungal + propylene glycol monocaprylate (partner: other agent of same combination no.)), 0.5 µg/mL; in experiment [1] (agent's MIC in combination antifungal + undecylenic acid (partner: other agent of same combination no.)), 1 µg/mL; with C. albicans (ATCC-90028) (setting [4]) it was 0.117 µg/mL; in the experiment on C. albicans (ATCC-90028) (setting [6]), 0.117 µg/mL. Also, the FIC index in experiment [1] (setting [8]) came to 0.3; in experiment [1] (setting [9]) it was 0.25; in experiment [1] (setting [10]), 0.187; in experiment [1] (setting [11]), 0.187; with C. albicans (ATCC-90028) (setting [12]), 0.265; in the experiment with C. albicans (ATCC-90028) (setting [13]) it was 0.0781. The Interaction entry (in experiment [1] (setting [8]); in experiment [1] (setting [9]); in experiment [1] (setting [10]); in experiment [1] (setting [11]); in the experiment on C. albicans (ATCC-90028) (setting [12]); with C. albicans (ATCC-90028) (setting [13])) was “Synergistic (Combinations that gave FIC indices less than 1 were designated “synergistic”)” throughout. In addition, the FIC in experiment [1] (combination antifungal + caprylic acid) was determined as 0.062; in experiment [1] (combination antifungal + lauric acid) it was 0.125; in experiment [1] (combination antifungal + propylene glycol monocaprylate) it was 0.0625; in experiment [1] (combination antifungal + undecylenic acid), 0.125; in the experiment with C. albicans (ATCC-90028) (setting [5]) it was 0.015; with C. albicans (ATCC-90028) (setting [7]), 0.0156.
Turning to `CCCCCCCCCC(=O)O` [capric acid], the “growth of M. furfur on culture media containing the fatty acid/ester or oil” value with M. furfur (MTCC 1374) was “no growth”.
Consider `CCCCCCCC/C=C\CCCCCCCC(=O)OCC` [ethyl oleate], for which the “growth of M. furfur on culture media containing the fatty acid/ester or oil” value in the experiment on M. furfur (MTCC 1374) was “confluent growth”.
For `CCCCC/C=C\C/C=C\CCCCCCCC(=O)O` [linoleic acid], the “growth of M. furfur on culture media containing the fatty acid/ester or oil” value with M. furfur (MTCC 1374) is on record as “confluent growth”.
Take `CCCCCCCC/C=C\CCCCCCCC(=O)O` [oleic acid]: the “growth of M. furfur on culture media containing the fatty acid/ester or oil” value in the experiment with M. furfur (MTCC 1374) was “confluent growth”.
As to `CCCCCCCCCCCCCCCC(=O)O` [palmitic acid], the “growth of M. furfur on culture media containing the fatty acid/ester or oil” value in the experiment with M. furfur (MTCC 1374) is on record as “confluent growth”.

The values above are taken from US20190142800A1, “SYNERGISTIC ANTIFUNGAL COMPOSITIONS AND METHODS THEREOF” (VYOME THERAPEUTICS LIMITED, priority 2016, published 2019).
